In general, pKa refers to the negative logarithm of the acid dissociation constant. In general, IC50 refers to the concentration needed to halve the response being measured. By EC50 is commonly meant the concentration at which the effect is half-maximal.

The values that follow come from patent US11787781B2, “Inhibiting ataxia telangiectasia and RAD3-related protein (ATR)” (Celator Pharmaceuticals, Inc., priority 2016, dated 2023).

One data set is described as follows: pKa. To be noted: method not stated. The class given is physicochemical.
Data set [1] relates to total and phospho-ATR (S428), phospho-CHK1 (S317 and S345) in DMS-114 cells. In words: Western blot of total and phospho-ATR, phospho-CHK1 in DMS-114 cells. The data set is classed as cell-based. The procedure: Whole cell protein lysates were generated after 1, 3, 6 and 24 hours using a 2% SDS containing cell lysis buffer and stored at −80° C. until all samples were collected and run together at the same time for the WesternBlot analysis. The following proteins and phosphoproteins of interest were detected by antibodies purchased from Cell Signaling Technology (see methods and materials part below): total and phospho-ATR (S428), phospho-CHK1 (S317 and S345), γH2AX, beta-actin.
All target and phospho-specific antibodies were purchased from Cell Signaling and/or Epitomics and were used at 1:1000 dilutions. A list of all antibodies is available in Table 6. Standard antibody based Western blot and immunohistochemistry protocols were used. Briefly, 2% SDS based cell lysis buffer was used to collect whole cell lysate for Western Blotting. Secondary antibodies and staining protocols were purchased and followed regarding LiCor Biosciences and/or BD Bioscience.
Cells were grown and treated in a 6 cm dish scale. To harvest cells, medium was removed and quickly replaced by ice cold PBS. PBS was then replaced with 250 μL of 2% SDS lysis buffer. After five minutes of incubation, the lysed cells were scraped off and loaded onto a cell lysate homogenizer microcentrifuge spin-column (QIAshredder, Qiagen, Cat.-Nr. 79656). The filtrate was then loaded onto a 0.2 μm centrifugal filter column (Nanosep MF 0.2_m, Pall, Cat.-Nr. ODM02C34). The lysates were then stored at −80° C.
A general note: In western blotting, separated proteins are transferred to a membrane and probed.

Another data set concerns the target ATM(h) (Homo sapiens (Human), UniProt Q13315). As to the kind of experiment: ATM activity, […] KINASEPROFILER
The conditions noted are these: estimated IC50. The data set is classed as biochemical. From the text: Estimated IC50 values are as follows (obtained using […] KINASEPROFILER): […]

The next data set has as its target ATR/ATRIP(h) (Homo sapiens (Human), UniProt Q13535). In words: Eurofins ATR/ATRIP HTRF assay, p53 Ser15 phosphorylation. The conditions noted are these: ATP 10 μM. Set-up: key to Top / Bottom: % of DMSO positive control activity. The class given is biochemical. The procedure: An EC50 determination was conducted for the supplied set of compounds against the kinase ATR/ATRIP(h), using a linear enzyme concentration in the Eurofins ATR/ATRIP HTRF assay using GST tagged full length p53 as the substrate.
ATR/ATRIP phosphorylation of p53 on Ser15 was measured via formation of an energy transfer complex consisting of a Europium-labelled anti-phospho Ser15 p53 antibody and an anti-GST-d2 antibody. All data points were performed in duplicate with DMSO controls and EDTA blanks.
ATR/ATRIP(h) was pre-diluted in 25 mM HEPES pH 8.0, 0.01% Brij-35, 1% Glycerol, 5 mM DTT, 1 mg/mL BSA and assayed in 25 mM HEPES pH 8.0, 0.01% Brij-35, 1% Glycerol, 10 mM MnCl2 using 30 nM GST, cMyc p53-(hu,FL) as the substrate. The reaction was initiated with the addition of ATP to a final concentration of 10 μM.
The individual replicates were expressed in terms of the % of the DMSO positive control activity. The mean activity (% control) of each inhibitor concentration was plotted against the inhibitor concentration, and EC50 values were determined using […] PRISM.
The data expressed as % control activity were plotted against inhibitor concentration, and fitted to a four parameter logistic using […] PRISM. Graphs for each compound are shown alongside the data in the accompanying Excel report.
Background: In TR-FRET formats the signal depends on donor and acceptor labels being close together.

The subject of the next data set is H358 cells. As to the kind of experiment: Cell death and growth assay, H358 cells. The class given is cell-based. The conditions noted are these: set concentrations, in combination with Gemcitabine. The source says: In all cases, relative cell proliferation is reduced with the combinations compared to the drugs alone (FIG. 21B-C).
Data set [2] can be described thus: Loading of ATR inhibitors into TEA-SOS liposomes and liposome characterization. The data set is classed as physicochemical. The procedure: Sodium sucrose octasulfate (equivalent weight 144.8) is a sodium salt of sucrose derivate in which all hydroxyl groups have formed sulfuric acid esters. Sixty gram of sucrose octasulfate (SOS) sodium salt were dissolved in 150 ml of di water, heated with shaking (swirling) of a 50° C. water bath. The solution was passed through a column packed with sulfonated polystyrene divinylbenzene copolymer cation exchange resin beads (Dowex 50Wx8-100-200 mesh, Dow Chemical Co.). […] The eluent was monitored using a conductivity detector. The SOS fraction was collected corresponding to conductivity peak and immediately titrated with neat triethylamine (TEA) solution to pH 6-6.5. The solution was analyzed for residual sodium by potentiometry using a sodium-sensitive electrode and for SOS concentration using a refractometer. The solution having residual sodium less than 0.25% was diluted with di water to final SOS concentration 1.1 M and then sterile-filtered using Millipore 0.22 μm Steri-Top filter.
Cholesterol (Chol) was purchased from Avanti Polar Lipids, Alabaster, Ala., USA, hydrogenated soy phosphocholine (HSPC) and methoxy-poly(ethylene glycol)-1,2-distearoyl-sn-glyceryl (PEG2000-DSG) were obtained from Lipoid GmbH, Ludwigshafen, Germany.
Chol, HSPC and PEG2000-DSG were co-dissolved in 100% ethanol (200-proof, Sigma cat #: 459828) at a molar ratio of 3:2:0.15 at 65° C. The solution of TEA-SOS (10 times the volume of added ethanol) was mixed with the lipid solution at 60-65° C. and stirred at this temperature until a homogeneous milky suspension of multilamellar vesicles was formed. This suspension was extruded 3 times through 5 stacked polycarbonate track-etched filters (Corning Nuclepore) with the pore size of 100 nm using argon pressure extruder (Lipex Biomembranes) at 60-65° C., and resulting unilamellar liposomes were quickly chilled in ice and then stored at 4-6° C. before use. Concentration of phospholipids was measured by phosphate assay and particle diameter was recorded on a Malvern Nanosizer.
Prior to drug loading, the TEA-SOS gradient was created by removing excess of un-trapped TEA-SOS using gel-chromatography (Sepharose CL-4B, Pharmacia). Osmolarity of liposomes was balanced using 50% dextrose solution. Final dextrose concentration was 15%.
ATR inhibitors were dissolved in 15% dextrose solutions in di water by titration with 1 M HCl and heating at 45° C. and then filtered with 0.2 micron NALGENE 13 mm Syringe Filters. Drug concentration in the solution was detected by HPLC. […]
The liposome-drug mixture was incubated with occasional agitation for 30 minutes at 65° C. The incubation mixture was quickly cooled down and incubated for 10 minutes at 0° C., then allowed to attain ambient temperature. Un-encapsulated drug was removed by gel chromatography on Sephadex G-25 (Amersham Pharmacia) eluted with HBS-6.5 buffer (5 mM 2-(4-(2-hydroxyethyl)-piperazino)-ethylsulfonic acid (HEPES), 144 mM NaCl, pH 6.5). Liposome fractions eluted in the void volume were combined, sterilized by 0.2 micron filtration, and stored at 4-6° C. before use. The liposomes were characterized by lipid concentration, drug concentration, and particle size (Table 2).

The mark [3] stands for this setting: four parameter logistic fit of % control activity.

Molecules are shown by their SMILES.

Sequence of ATR/ATRIP(h) (Q13535 whole entry): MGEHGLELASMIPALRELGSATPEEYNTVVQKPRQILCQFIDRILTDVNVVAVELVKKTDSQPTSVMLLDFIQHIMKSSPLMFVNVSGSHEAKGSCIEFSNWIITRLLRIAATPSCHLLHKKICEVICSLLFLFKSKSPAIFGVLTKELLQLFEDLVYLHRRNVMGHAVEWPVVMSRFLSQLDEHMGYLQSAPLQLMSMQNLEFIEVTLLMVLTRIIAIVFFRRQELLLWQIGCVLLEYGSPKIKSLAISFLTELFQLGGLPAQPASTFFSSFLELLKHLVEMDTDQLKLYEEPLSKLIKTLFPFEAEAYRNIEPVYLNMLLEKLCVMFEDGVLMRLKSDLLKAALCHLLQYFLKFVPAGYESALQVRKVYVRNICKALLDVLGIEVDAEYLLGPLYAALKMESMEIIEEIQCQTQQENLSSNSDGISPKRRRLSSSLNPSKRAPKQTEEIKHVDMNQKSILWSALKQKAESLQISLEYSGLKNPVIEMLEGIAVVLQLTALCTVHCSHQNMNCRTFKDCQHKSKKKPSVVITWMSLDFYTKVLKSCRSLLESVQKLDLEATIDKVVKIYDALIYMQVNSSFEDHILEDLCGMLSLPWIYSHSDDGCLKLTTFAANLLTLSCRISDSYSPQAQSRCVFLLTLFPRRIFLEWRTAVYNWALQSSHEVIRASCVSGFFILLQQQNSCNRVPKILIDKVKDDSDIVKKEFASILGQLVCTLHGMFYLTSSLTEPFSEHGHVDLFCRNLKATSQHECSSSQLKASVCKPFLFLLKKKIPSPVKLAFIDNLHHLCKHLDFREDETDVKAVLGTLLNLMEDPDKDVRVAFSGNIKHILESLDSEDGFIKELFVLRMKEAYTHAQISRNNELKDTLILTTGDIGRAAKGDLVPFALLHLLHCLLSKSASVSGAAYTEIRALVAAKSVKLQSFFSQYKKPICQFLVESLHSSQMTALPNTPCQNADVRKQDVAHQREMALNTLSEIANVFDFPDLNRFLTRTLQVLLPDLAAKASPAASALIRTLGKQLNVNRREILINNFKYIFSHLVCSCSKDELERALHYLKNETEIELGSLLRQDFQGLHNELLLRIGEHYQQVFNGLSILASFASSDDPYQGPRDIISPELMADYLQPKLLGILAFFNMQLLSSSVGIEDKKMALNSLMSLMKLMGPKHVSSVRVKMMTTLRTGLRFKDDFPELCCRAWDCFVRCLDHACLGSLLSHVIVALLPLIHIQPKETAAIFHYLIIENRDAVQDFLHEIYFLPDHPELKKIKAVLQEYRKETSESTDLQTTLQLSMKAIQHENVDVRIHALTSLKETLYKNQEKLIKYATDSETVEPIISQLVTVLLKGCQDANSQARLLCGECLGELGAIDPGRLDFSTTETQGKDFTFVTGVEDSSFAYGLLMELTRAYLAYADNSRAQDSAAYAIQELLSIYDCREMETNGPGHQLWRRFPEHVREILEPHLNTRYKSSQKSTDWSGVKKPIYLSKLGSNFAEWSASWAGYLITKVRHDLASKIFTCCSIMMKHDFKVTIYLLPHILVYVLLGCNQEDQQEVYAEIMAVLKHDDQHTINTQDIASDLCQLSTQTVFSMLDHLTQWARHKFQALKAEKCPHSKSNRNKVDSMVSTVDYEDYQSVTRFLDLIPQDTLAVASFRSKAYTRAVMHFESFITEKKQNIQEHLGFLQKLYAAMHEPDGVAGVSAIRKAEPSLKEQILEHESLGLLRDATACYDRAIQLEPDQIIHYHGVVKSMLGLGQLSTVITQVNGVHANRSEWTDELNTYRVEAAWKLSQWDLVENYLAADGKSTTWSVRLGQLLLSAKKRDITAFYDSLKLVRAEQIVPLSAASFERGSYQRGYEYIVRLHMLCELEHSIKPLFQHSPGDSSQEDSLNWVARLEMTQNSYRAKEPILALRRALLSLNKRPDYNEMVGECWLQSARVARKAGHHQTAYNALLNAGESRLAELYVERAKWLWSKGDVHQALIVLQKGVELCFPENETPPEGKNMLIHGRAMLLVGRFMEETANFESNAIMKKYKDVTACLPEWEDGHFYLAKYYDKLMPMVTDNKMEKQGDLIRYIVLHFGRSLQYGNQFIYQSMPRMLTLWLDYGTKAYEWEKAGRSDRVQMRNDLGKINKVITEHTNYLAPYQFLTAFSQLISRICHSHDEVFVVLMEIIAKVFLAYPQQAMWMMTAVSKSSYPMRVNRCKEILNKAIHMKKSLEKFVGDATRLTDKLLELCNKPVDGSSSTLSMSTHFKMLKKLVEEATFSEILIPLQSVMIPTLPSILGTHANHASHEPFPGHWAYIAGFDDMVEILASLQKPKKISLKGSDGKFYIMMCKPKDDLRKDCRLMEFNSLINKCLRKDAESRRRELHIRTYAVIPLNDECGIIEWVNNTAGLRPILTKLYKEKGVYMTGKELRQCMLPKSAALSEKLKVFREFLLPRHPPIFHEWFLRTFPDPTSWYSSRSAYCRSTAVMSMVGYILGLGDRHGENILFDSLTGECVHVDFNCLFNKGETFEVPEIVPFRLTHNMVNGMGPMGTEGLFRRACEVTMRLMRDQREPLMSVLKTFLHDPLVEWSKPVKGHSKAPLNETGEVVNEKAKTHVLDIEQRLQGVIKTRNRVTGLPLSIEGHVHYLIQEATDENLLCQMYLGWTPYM
Sequence of ATR/ATRIP(h) (Q8WXE1 whole entry partner): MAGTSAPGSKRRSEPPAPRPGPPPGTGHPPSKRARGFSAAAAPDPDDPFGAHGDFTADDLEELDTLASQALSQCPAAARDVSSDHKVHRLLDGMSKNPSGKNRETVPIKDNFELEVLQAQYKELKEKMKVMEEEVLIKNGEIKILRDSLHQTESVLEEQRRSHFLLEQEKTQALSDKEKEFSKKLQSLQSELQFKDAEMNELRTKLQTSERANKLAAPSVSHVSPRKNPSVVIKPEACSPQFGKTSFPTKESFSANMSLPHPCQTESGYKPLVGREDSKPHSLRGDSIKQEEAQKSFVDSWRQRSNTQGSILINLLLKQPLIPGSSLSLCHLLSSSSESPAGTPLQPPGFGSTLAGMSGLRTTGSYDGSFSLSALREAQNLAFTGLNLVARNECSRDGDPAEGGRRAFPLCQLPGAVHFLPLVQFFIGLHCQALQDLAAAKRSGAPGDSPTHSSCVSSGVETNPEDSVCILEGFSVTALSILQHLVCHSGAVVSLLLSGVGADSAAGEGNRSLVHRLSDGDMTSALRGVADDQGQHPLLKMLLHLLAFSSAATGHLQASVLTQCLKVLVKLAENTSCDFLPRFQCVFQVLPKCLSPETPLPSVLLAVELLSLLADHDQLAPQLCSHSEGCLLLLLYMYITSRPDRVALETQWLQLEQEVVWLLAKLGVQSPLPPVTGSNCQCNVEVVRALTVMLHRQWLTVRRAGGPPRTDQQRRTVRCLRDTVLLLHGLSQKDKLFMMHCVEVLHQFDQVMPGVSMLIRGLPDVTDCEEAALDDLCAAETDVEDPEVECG

As to `CN(C)CCC1CCN(CCS(=O)(=O)c2ccc(-c3cnc(N)c(C(=O)Nc4ccccc4)n3)cc2)CC1` [Compound 5, 3-amino-6-(4-((2-(4-(2-(dimethylamino)ethyl)piperidin-1-yl)ethyl)sulfonyl)phenyl)-N-phenylpyrazine-2-carboxamide], the pKa in “pKa” turned out to be 10. In addition, the “phosphorylation signal of CHK1 (S317 and S345) induced by Gemcitabine” value in data set [1] (ATR inhibitor 1 μM added to Gemcitabine 16 nM) was “abrogates the phosphorylation signal of CHK1”. Besides, the “total and phospho-ATR signal” value in data set [1] (ATR inhibitor 1 μM, alone or with Gemcitabine 16 nM, up to 24 hrs) was “strongly reduced”. The IC50 at ATM(h) was greater than 10000 nM. The midpoint of the response on ATR/ATRIP(h), the EC50, lay at 234 nM. Moreover, at ATR/ATRIP(h) (four parameter logistic fit), the Hill is −0.819. On ATR/ATRIP(h) (setting [3]), this compound came in with a Bottom of 1 and a Top of 95. Moreover, in the data set with H358 cells, the “relative cell proliferation vs the drugs alone” value is “reduced”. Besides, the “Loading efficiency (%)” value in data set [2] (TEA-SOS liposomes, Compound 1 at ratio before loading 379) is 84 ± 8%. For the same compound, in data set [2] (TEA-SOS liposomes, input ratio before loading (Compound 1: 379)), the “Drug/lipid ratio after loading” value is on record as 619 ± 110. Moreover, the “Liposome size, (mean ± SD) nm” value in data set [2] (liposomes loaded with the ATR inhibitor) came to 120 ± 29 nm.
